The NIST ThermoML archive (doi:10.1016/j.jct.2008.03.007)
Numbers after ± are expanded uncertainties.

Tests used:
[1] = xn = mol fraction of the nth substance listed; details: 101 kPa, Liquid; for mass density: Vibrating tube method
[2] = 101.33 kPa, Liquid, Vibrating tube method

## CCCCCCCC[N+](C)(CCCCCCCC)CCCCCCCC.O=S(=O)([N-]S(=O)(=O)C(F)(F)F)C(F)(F)F + CCO
[1]; 298.15 K, x1 = 0.0484
  mass density: 896 ± 6 kg/m3
[1]; 298.15 K, x1 = 0.1731
  mass density: 1005 ± 6 kg/m3
  speed of sound: 1116.1 ± 6.5 m/s
[1]; 298.15 K, x1 = 0.2728
  mass density: 1041 ± 6 kg/m3
  speed of sound: 1098.8 ± 6.4 m/s
[1]; 298.15 K, x1 = 0.3353
  mass density: 1055 ± 6 kg/m3
  speed of sound: 1087.9 ± 6.4 m/s
[1]; 298.15 K, x1 = 0.4286
  mass density: 1070 ± 6 kg/m3
  speed of sound: 1071.6 ± 6.4 m/s
[1]; 298.15 K, x1 = 0.5145
  mass density: 1080 ± 6 kg/m3
  speed of sound: 1056.6 ± 6.3 m/s
[1]; 298.15 K, x1 = 0.6307
  mass density: 1090 ± 6 kg/m3
  speed of sound: 1036.4 ± 6.3 m/s
[1]; 298.15 K, x1 = 0.7338
  mass density: 1097 ± 6 kg/m3
  speed of sound: 1018.4 ± 6.3 m/s
[1]; 298.15 K, x1 = 0.7774
  mass density: 1099 ± 6 kg/m3
  speed of sound: 1010.8 ± 6.3 m/s
[1]; 298.15 K, x1 = 0.9393
  mass density: 1107 ± 6 kg/m3
[1]; 298.15 K, x1 = 0.9493
  speed of sound: 980.8 ± 6.2 m/s
[1]; 303.15 K, x1 = 0.0484
  mass density: 896 ± 6 kg/m3
[1]; 303.15 K, x1 = 0.1731
  mass density: 1003 ± 6 kg/m3
[1]; 303.15 K, x1 = 0.2728
  mass density: 1036 ± 6 kg/m3
[1]; 303.15 K, x1 = 0.3353
  mass density: 1050 ± 6 kg/m3
[1]; 303.15 K, x1 = 0.4286
  mass density: 1063 ± 6 kg/m3
[1]; 303.15 K, x1 = 0.5145
  mass density: 1072 ± 6 kg/m3
[1]; 303.15 K, x1 = 0.6307
  mass density: 1082 ± 6 kg/m3
[1]; 303.15 K, x1 = 0.7338
  mass density: 1090 ± 6 kg/m3
[1]; 303.15 K, x1 = 0.7774
  mass density: 1092 ± 6 kg/m3
[1]; 303.15 K, x1 = 0.9493
  mass density: 1103 ± 6 kg/m3
[1]; 313.15 K, x1 = 0.0484
  mass density: 883 ± 6 kg/m3
[1]; 313.15 K, x1 = 0.1731
  mass density: 994 ± 6 kg/m3
[1]; 313.15 K, x1 = 0.2728
  mass density: 1029 ± 6 kg/m3
[1]; 313.15 K, x1 = 0.3353
  mass density: 1044 ± 6 kg/m3
[1]; 313.15 K, x1 = 0.4286
  mass density: 1058 ± 6 kg/m3
[1]; 313.15 K, x1 = 0.5145
  mass density: 1068 ± 6 kg/m3
[1]; 313.15 K, x1 = 0.6307
  mass density: 1078 ± 6 kg/m3
[1]; 313.15 K, x1 = 0.7338
  mass density: 1085 ± 6 kg/m3
[1]; 313.15 K, x1 = 0.7774
  mass density: 1087 ± 6 kg/m3
[1]; 313.15 K, x1 = 0.9493
  mass density: 1096 ± 6 kg/m3

## CCCCCCCC[N+](C)(CCCCCCCC)CCCCCCCC.O=S(=O)([N-]S(=O)(=O)C(F)(F)F)C(F)(F)F
[2]; 298.15 K
  mass density: 1109.3 ± 6.1 kg/m3
[2]; 303.15 K
  mass density: 1105.1 ± 6.1 kg/m3
[2]; 313.15 K
  mass density: 1098.3 ± 6.1 kg/m3

## CCCO [propan-1-ol]
[2]; 298.15 K
  mass density: 799.4 ± 6 kg/m3
[2]; 303.15 K
  mass density: 796.4 ± 6 kg/m3
[2]; 313.15 K
  mass density: 788.6 ± 6 kg/m3

## CCO [ethanol]
[2]; 298.15 K
  mass density: 785.5 ± 6 kg/m3
[2]; 303.15 K
  mass density: 782 ± 6 kg/m3
[2]; 313.15 K
  mass density: 773.7 ± 6 kg/m3

## CO [methanol]
[2]; 298.15 K
  mass density: 786 ± 6 kg/m3
[2]; 303.15 K
  mass density: 783.4 ± 6 kg/m3
[2]; 313.15 K
  mass density: 774.6 ± 6 kg/m3

## CCCCCCCC[N+](C)(CCCCCCCC)CCCCCCCC.O=S(=O)([N-]S(=O)(=O)C(F)(F)F)C(F)(F)F + CCCO
[1]; 298.15 K, x1 = 0.0736
  mass density: 919 ± 6 kg/m3
  speed of sound: 1187.7 ± 6.8 m/s
[1]; 298.15 K, x1 = 0.1146
  mass density: 956 ± 6 kg/m3
  speed of sound: 1178.1 ± 6.7 m/s
[1]; 298.15 K, x1 = 0.2152
  mass density: 1011 ± 6 kg/m3
  speed of sound: 1154.7 ± 6.7 m/s
[1]; 298.15 K, x1 = 0.3303
  mass density: 1045 ± 6 kg/m3
  speed of sound: 1127.9 ± 6.6 m/s
[1]; 298.15 K, x1 = 0.4033
  mass density: 1059 ± 6 kg/m3
  speed of sound: 1110.9 ± 6.5 m/s
[1]; 298.15 K, x1 = 0.524
  mass density: 1076 ± 6 kg/m3
  speed of sound: 1082.8 ± 6.5 m/s
[1]; 298.15 K, x1 = 0.6882
  mass density: 1091 ± 6 kg/m3
[1]; 298.15 K, x1 = 0.7833
  mass density: 1098 ± 6 kg/m3
  speed of sound: 1022.4 ± 6.3 m/s
[1]; 298.15 K, x1 = 0.8439
  mass density: 1102 ± 6 kg/m3
  speed of sound: 1008.3 ± 6.3 m/s
[1]; 298.15 K, x1 = 0.9533
  mass density: 1107 ± 6 kg/m3
  speed of sound: 982.9 ± 6.2 m/s
[1]; 298.15 K, x1 = 0.6682
  speed of sound: 1049.2 ± 6.4 m/s
[1]; 303.15 K, x1 = 0.0736
  mass density: 915 ± 6 kg/m3
[1]; 303.15 K, x1 = 0.1146
  mass density: 952 ± 6 kg/m3
[1]; 303.15 K, x1 = 0.2152
  mass density: 1006 ± 6 kg/m3
[1]; 303.15 K, x1 = 0.3303
  mass density: 1041 ± 6 kg/m3
[1]; 303.15 K, x1 = 0.4033
  mass density: 1055 ± 6 kg/m3
[1]; 303.15 K, x1 = 0.524
  mass density: 1072 ± 6 kg/m3
[1]; 303.15 K, x1 = 0.6882
  mass density: 1087 ± 6 kg/m3
[1]; 303.15 K, x1 = 0.7833
  mass density: 1094 ± 6 kg/m3
[1]; 303.15 K, x1 = 0.8439
  mass density: 1097 ± 6 kg/m3
[1]; 303.15 K, x1 = 0.9533
  mass density: 1103 ± 6 kg/m3
[1]; 313.15 K, x1 = 0.0736
  mass density: 907 ± 6 kg/m3
[1]; 313.15 K, x1 = 0.1146
  mass density: 944 ± 6 kg/m3
[1]; 313.15 K, x1 = 0.2152
  mass density: 999 ± 6 kg/m3
[1]; 313.15 K, x1 = 0.3303
  mass density: 1033 ± 6 kg/m3
[1]; 313.15 K, x1 = 0.4033
  mass density: 1047 ± 6 kg/m3
[1]; 313.15 K, x1 = 0.524
  mass density: 1064 ± 6 kg/m3
[1]; 313.15 K, x1 = 0.6882
  mass density: 1080 ± 6 kg/m3
[1]; 313.15 K, x1 = 0.7833
  mass density: 1087 ± 6 kg/m3
[1]; 313.15 K, x1 = 0.8439
  mass density: 1090 ± 6 kg/m3
[1]; 313.15 K, x1 = 0.9533
  mass density: 1096 ± 6 kg/m3

## CCCCCCCC[N+](C)(CCCCCCCC)CCCCCCCC.O=S(=O)([N-]S(=O)(=O)C(F)(F)F)C(F)(F)F + CO
[1]; 298.15 K, x1 = 0.0781
  mass density: 958 ± 6 kg/m3
[1]; 298.15 K, x1 = 0.1291
  mass density: 999 ± 6 kg/m3
  speed of sound: 1085.4 ± 6.4 m/s
[1]; 298.15 K, x1 = 0.2125
  mass density: 1037 ± 6 kg/m3
  speed of sound: 1074.5 ± 6.3 m/s
[1]; 298.15 K, x1 = 0.35
  mass density: 1068 ± 6 kg/m3
[1]; 298.15 K, x1 = 0.4172
  mass density: 1077 ± 6 kg/m3
  speed of sound: 1047.9 ± 6.3 m/s
[1]; 298.15 K, x1 = 0.5362
  mass density: 1089 ± 6 kg/m3
  speed of sound: 1032.4 ± 6.2 m/s
[1]; 298.15 K, x1 = 0.6529
  mass density: 1097 ± 6 kg/m3
[1]; 298.15 K, x1 = 0.7084
  mass density: 1100 ± 6 kg/m3
  speed of sound: 1010 ± 6.2 m/s
[1]; 298.15 K, x1 = 0.8522
  mass density: 1106 ± 6 kg/m3
  speed of sound: 991.2 ± 6.2 m/s
[1]; 298.15 K, x1 = 0.9345
  mass density: 1108 ± 6 kg/m3
[1]; 298.15 K, x1 = 0.0336
  speed of sound: 1097.8 ± 6.4 m/s
[1]; 298.15 K, x1 = 0.6611
  speed of sound: 1016.1 ± 6.2 m/s
[1]; 303.15 K, x1 = 0.0781
  mass density: 954 ± 6 kg/m3
[1]; 303.15 K, x1 = 0.1291
  mass density: 994 ± 6 kg/m3
[1]; 303.15 K, x1 = 0.2125
  mass density: 1031 ± 6 kg/m3
[1]; 303.15 K, x1 = 0.35
  mass density: 1062 ± 6 kg/m3
[1]; 303.15 K, x1 = 0.4172
  mass density: 1071 ± 6 kg/m3
[1]; 303.15 K, x1 = 0.5362
  mass density: 1083 ± 6 kg/m3
[1]; 303.15 K, x1 = 0.6529
  mass density: 1092 ± 6 kg/m3
[1]; 303.15 K, x1 = 0.7084
  mass density: 1095 ± 6 kg/m3
[1]; 303.15 K, x1 = 0.8522
  mass density: 1102 ± 6 kg/m3
[1]; 303.15 K, x1 = 0.9345
  mass density: 1104 ± 6 kg/m3
[1]; 313.15 K, x1 = 0.0781
  mass density: 940 ± 6 kg/m3
[1]; 313.15 K, x1 = 0.1291
  mass density: 982 ± 6 kg/m3
[1]; 313.15 K, x1 = 0.2125
  mass density: 1022 ± 6 kg/m3
[1]; 313.15 K, x1 = 0.35
  mass density: 1055 ± 6 kg/m3
[1]; 313.15 K, x1 = 0.4172
  mass density: 1064 ± 6 kg/m3
[1]; 313.15 K, x1 = 0.5362
  mass density: 1076 ± 6 kg/m3
[1]; 313.15 K, x1 = 0.6529
  mass density: 1085 ± 6 kg/m3
[1]; 313.15 K, x1 = 0.7084
  mass density: 1088 ± 6 kg/m3
[1]; 313.15 K, x1 = 0.8522
  mass density: 1095 ± 6 kg/m3
[1]; 313.15 K, x1 = 0.9345
  mass density: 1097 ± 6 kg/m3
